Source: patent US20130059783A1, “COMPOSITIONS AND METHODS FOR EXPANDING BFU-E CELLS” (priority 2010, published 2013)

Tested on: mRNA expression in BFU-E cells
Test: mRNA-Seq of BFU-E cells cultured 4 hours with or without Dex (Table S3)
Type: cell-based, mouse
Details: for Expression level log2((100 nM DEX)* (0 nM DEX)) / Expression of mRNA in BFU-E after 4 h 100 nM DEX (RPKM) / Expression change log2 ((100 nM DEX)/(0 nM DEX))2 / Expression change log2 ((100 nM DEX)/(0 nM DEX)): BFU-E, 4 h; for Expression change log2 ((100 nM DEX)/(0 nM DEX)): 100 nM vs 0 nM DEX
Description: FIGS. 2A-2B. The effect of glucocorticoids on miRNA and mRNA expression in BFU-E cells determined by next generation sequencing. […] Both mRNAs and miRNAs were subjected to Illumina deep sequencing. […] (B) A plot similar to that in A for expression of individual mRNAs. mRNA expression was normalized using the RPKM method, which determines the relative expression of each gene to all expressed genes by giving each gene an RPKM count (number of uniquely aligning reads per kb exon per million total reads). […]
To minimize the risk of false positive GC target genes we chose to compare only highly expressed genes (≈10,000 genes with a multiplied RPKM count >4) (Mortazavi et al., 2008).
Samples for Paired-End mRNA-Seq were prepared using the Solexa kit according to the manufacturer's instructions with the exception that we extracted 300 bp bands, before and after the PCR step (Illumina). Images acquired from the Solexa sequencer were processed through the bundled Solexa image extraction pipeline version 1.4. mRNA-Seq reads were aligned to mouse NCBI build 37 (mm9) using ELAND, Briefly, the first 32 bases of a read were used as a seed. Each matched seed was then extended up to 36 bases and scored to break any ties between multi-matches. For mRNA expression counts, unique reads in the genome that landed within any exons of NCBI gene models (v37.1) were counted. The counts were normalized by the mRNA length to get the final RPKM values (i.e. reads per KB per million reads).

## C[C@@H]1C[C@H]2[C@@H]3CCC4=CC(=O)C=C[C@]4(C)[C@@]3(F)[C@@H](O)C[C@]2(C)[C@@]1(O)C(=O)CO [Dex, dexamethasone]
Gene Kit
  Expression level log2((100 nM DEX)* (0 nM DEX)): 12.13
  Expression of mRNA in BFU-E after 4 h 100 nM DEX (RPKM): 97.02 RPKM
Gene Klf9
  Expression level log2((100 nM DEX)* (0 nM DEX)): 4.86
  Expression of mRNA in BFU-E after 4 h 100 nM DEX (RPKM): 8.07 RPKM
Gene Klf13
  Expression change log2 ((100 nM DEX)/(0 nM DEX))2: 1.37
  Expression level log2((100 nM DEX)* (0 nM DEX)): 8.41
  Expression of mRNA in BFU-E after 4 h 100 nM DEX (RPKM): 29.57 RPKM
Gene Lama5
  Expression of mRNA in BFU-E after 4 h 100 nM DEX (RPKM): 3.90 RPKM
Gene Lrfn1
  Expression change log2 ((100 nM DEX)/(0 nM DEX))2: 1.05
  Expression level log2((100 nM DEX)* (0 nM DEX)): 2.45
  Expression of mRNA in BFU-E after 4 h 100 nM DEX (RPKM): 3.37 RPKM
Gene Maff
  Expression of mRNA in BFU-E after 4 h 100 nM DEX (RPKM): 6.11 RPKM
  Expression change log2 ((100 nM DEX)/(0 nM DEX)): 2.58
Gene Man2a2
  Expression level log2((100 nM DEX)* (0 nM DEX)): 9.07
  Expression of mRNA in BFU-E after 4 h 100 nM DEX (RPKM): 35.22 RPKM
Gene Mobkl2c
  Expression level log2((100 nM DEX)* (0 nM DEX)): 5.14
  Expression of mRNA in BFU-E after 4 h 100 nM DEX (RPKM): 8.65 RPKM
Gene Mt2
  Expression of mRNA in BFU-E after 4 h 100 nM DEX (RPKM): 1306.42 RPKM
Gene Nags
  Expression change log2 ((100 nM DEX)/(0 nM DEX))2: 1.02
  Expression level log2((100 nM DEX)* (0 nM DEX)): 2.04
  Expression of mRNA in BFU-E after 4 h 100 nM DEX (RPKM): 2.88 RPKM
Gene Ncoa7
  Expression of mRNA in BFU-E after 4 h 100 nM DEX (RPKM): 7.54 RPKM
Gene Nfkbia
  Expression change log2 ((100 nM DEX)/(0 nM DEX))2: 1.36
  Expression level log2((100 nM DEX)* (0 nM DEX)): 4.55
  Expression of mRNA in BFU-E after 4 h 100 nM DEX (RPKM): 7.75 RPKM
Gene Nhej1
  Expression of mRNA in BFU-E after 4 h 100 nM DEX (RPKM): 4.51 RPKM
Gene Nrgn
  Expression level log2((100 nM DEX)* (0 nM DEX)): 7.68
  Expression of mRNA in BFU-E after 4 h 100 nM DEX (RPKM): 21.01 RPKM
Gene Per1
  Expression of mRNA in BFU-E after 4 h 100 nM DEX (RPKM): 23.34 RPKM
  Expression change log2 ((100 nM DEX)/(0 nM DEX)): 2.30
Gene Pex11a
  Expression of mRNA in BFU-E after 4 h 100 nM DEX (RPKM): 5.87 RPKM
Gene Pfkfb4
  Expression of mRNA in BFU-E after 4 h 100 nM DEX (RPKM): 12.25 RPKM
  Expression change log2 ((100 nM DEX)/(0 nM DEX)): 2.47
Gene Pld6
  Expression level log2((100 nM DEX)* (0 nM DEX)): 2.64
  Expression of mRNA in BFU-E after 4 h 100 nM DEX (RPKM): 3.65 RPKM
Gene Plk3
  Expression of mRNA in BFU-E after 4 h 100 nM DEX (RPKM): 5.75 RPKM
  Expression change log2 ((100 nM DEX)/(0 nM DEX)): 1.76
Gene Polr3gl
  Expression level log2((100 nM DEX)* (0 nM DEX)): 3.89
  Expression of mRNA in BFU-E after 4 h 100 nM DEX (RPKM): 5.93 RPKM
Gene Rab3il1
  Expression level log2((100 nM DEX)* (0 nM DEX)): 3.44
  Expression of mRNA in BFU-E after 4 h 100 nM DEX (RPKM): 4.94 RPKM
Gene Rapgef2
  Expression level log2((100 nM DEX)* (0 nM DEX)): 2.18
  Expression of mRNA in BFU-E after 4 h 100 nM DEX (RPKM): 3.28 RPKM
Gene Rcsd1
  Expression of mRNA in BFU-E after 4 h 100 nM DEX (RPKM): 8.11 RPKM
  Expression change log2 ((100 nM DEX)/(0 nM DEX)): 1.68
Gene Rps6ka1
  Expression level log2((100 nM DEX)* (0 nM DEX)): 9.31
  Expression of mRNA in BFU-E after 4 h 100 nM DEX (RPKM): 39.02 RPKM
Gene Serpina3g
  Expression of mRNA in BFU-E after 4 h 100 nM DEX (RPKM): 36.06 RPKM
  Expression change log2 ((100 nM DEX)/(0 nM DEX)): 2.06
Gene Slc30a10
  Expression of mRNA in BFU-E after 4 h 100 nM DEX (RPKM): 7.11 RPKM
Gene Slc44a2
  Expression level log2((100 nM DEX)* (0 nM DEX)): 9.19
  Expression of mRNA in BFU-E after 4 h 100 nM DEX (RPKM): 35.91 RPKM
Gene Socs1
  Expression of mRNA in BFU-E after 4 h 100 nM DEX (RPKM): 34.03 RPKM
  Expression change log2 ((100 nM DEX)/(0 nM DEX)): 2.74
Gene Spry1
  Expression level log2((100 nM DEX)* (0 nM DEX)): 5.36
  Expression of mRNA in BFU-E after 4 h 100 nM DEX (RPKM): 9.31 RPKM
Gene St3gal2
  Expression of mRNA in BFU-E after 4 h 100 nM DEX (RPKM): 23.29 RPKM
Gene Syne1
  Expression of mRNA in BFU-E after 4 h 100 nM DEX (RPKM): 7.36 RPKM
Gene Tle4
  Expression change log2 ((100 nM DEX)/(0 nM DEX))2: 1.29
  Expression level log2((100 nM DEX)* (0 nM DEX)): 6.76
  Expression of mRNA in BFU-E after 4 h 100 nM DEX (RPKM): 16.27 RPKM
Gene Tns1
  Expression of mRNA in BFU-E after 4 h 100 nM DEX (RPKM): 20.01 RPKM
Gene Tph1
  Expression of mRNA in BFU-E after 4 h 100 nM DEX (RPKM): 5.51 RPKM
Gene Trib2
  Expression level log2((100 nM DEX)* (0 nM DEX)): 4.11
  Expression of mRNA in BFU-E after 4 h 100 nM DEX (RPKM): 6.12 RPKM
Gene Tsc22d3
  Expression of mRNA in BFU-E after 4 h 100 nM DEX (RPKM): 19.83 RPKM
Gene Txnip
  Expression level log2((100 nM DEX)* (0 nM DEX)): 8.13
  Expression of mRNA in BFU-E after 4 h 100 nM DEX (RPKM): 24.97 RPKM
Gene Wdr21
  Expression of mRNA in BFU-E after 4 h 100 nM DEX (RPKM): 48.20 RPKM
Gene Wdr60
  Expression change log2 ((100 nM DEX)/(0 nM DEX))2: 1.05
  Expression level log2((100 nM DEX)* (0 nM DEX)): 5.00
  Expression of mRNA in BFU-E after 4 h 100 nM DEX (RPKM): 8.14 RPKM
Gene Zbtb16
  Expression change log2 ((100 nM DEX)/(0 nM DEX))2: 1.30
  Expression level log2((100 nM DEX)* (0 nM DEX)): 3.93
  Expression of mRNA in BFU-E after 4 h 100 nM DEX (RPKM): 6.14 RPKM
Gene Zfp1
  Expression of mRNA in BFU-E after 4 h 100 nM DEX (RPKM): 5.67 RPKM
  Expression change log2 ((100 nM DEX)/(0 nM DEX)): 2.96
Gene Zfp36l2
  Expression level log2((100 nM DEX)* (0 nM DEX)): 13.36
  Expression of mRNA in BFU-E after 4 h 100 nM DEX (RPKM): 163.74 RPKM
Multiplied RPKM count greater than zero
  Genes upregulated 50% or more: 395 genes
